# Measurements as given in patent US20120207734A1 (priority 2011, published 2012).
# System: DU-145 cells
# Assay type: cell-based, human
smiles,measurement,value
C=C1[C@@H](C)[C@H]2[C@H](Cc3ccccc3)NC(=O)[C@]23[C@H](OC(C)=O)/C=C/[C@@](C)(O)C(=O)[C@@H](C)C/C=C/[C@H]3[C@@H]1O [Cytochalasin-D],Effect on cell migration,did not migrate
same,"Relative Wound Density at 24 Hours, Mean",3.3 ± 0.2
same,"Relative Wound Density at 24 Hours, Percent Relative to Media",4%
